# Test results from ChEMBL document CHEMBL3593232, “Ring-substituted 8-hydroxyquinoline-2-carboxanilides as potential antimycobacterial agents” (Bioorg Med Chem, 2015).
# Tests used:
# [1] = Lipophilicity assessed as capacity factor logK of the compound by HPLC method; type: physicochemical
# [2] = tested on: Mycobacterium avium complex sp.; type: functional; settings: isolate CIT19/06, 120 h
# [3] = tested on: Mycobacterium avium subsp. paratuberculosis; type: functional; settings: isolate CIT03, 264 h
# [4] = tested on: Mycobacterium tuberculosis; type: functional, H37Ra ATCC 25177
# THP-1 = assay: Cytotoxicity against human THP1 cells assessed as reduction in cell viability incubated for 24 hrs by WST1 dye based assay; settings: THP-1, 24 h
# [5] = tested on: Mycobacterium tuberculosis; assay: microbe, parasite or virus in culture; settings: H37Ra ATCC 25177, 168 h
# Description: Antimycobacterial activity against Mycobacterium tuberculosis H37Ra ATCC 25177 assessed as reduction in bacterial growth incubated at 37 degC for 7 days by alamar blue dye based assay
compound,measurement,setting,value
O=C(Nc1cccc([N+](=O)[O-])c1)c1ccc2cccc(O)c2n1,log K,[1],0.9845
same,MIC90,[2],808 µM
same,MIC90,[3],808 µM
same,Activity,[4],7%
same,IC50,THP-1,> 30 µM
same,MIC90,[5],26 µM
O=C(Nc1ccccc1Cl)c1ccc2cccc(O)c2n1,log K,[1],0.9566
same,MIC90,[2],837 µM
same,MIC90,[3],27 µM
same,Activity,[4],21.4%
same,IC50,THP-1,> 30 µM
same,MIC90,[5],27 µM
O=C(Nc1ccccc1C(F)(F)F)c1ccc2cccc(O)c2n1,log K,[1],0.9147
same,MIC90,[2],752 µM
same,MIC90,[3],24 µM
same,Activity,[4],53.4%
same,IC50,THP-1,> 30 µM
same,MIC90,[5],24 µM
O=C(Nc1cccc(Br)c1)c1ccc2cccc(O)c2n1,log K,[1],1.2357
same,MIC90,[2],44 µM
same,MIC90,[3],44 µM
same,IC50,THP-1,> 30 µM
same,MIC90,[5],44 µM
O=C(Nc1ccc(C(F)(F)F)cc1)c1ccc2cccc(O)c2n1,log K,[1],1.3653
same,MIC90,[2],24 µM
same,MIC90,[3],24 µM
same,Activity,[4],33.1%
same,IC50,THP-1,> 30 µM
same,MIC90,[5],24 µM
COc1cccc(NC(=O)c2ccc3cccc(O)c3n2)c1,log K,[1],0.8164
same,MIC90,[2],27 µM
same,MIC90,[3],27 µM
same,Activity,[4],30.9%
same,IC50,THP-1,> 30 µM
same,MIC90,[5],27 µM
Cc1ccccc1NC(=O)c1ccc2cccc(O)c2n1,log K,[1],0.6944
same,MIC90,[2],54 µM
same,MIC90,[3],29 µM
same,IC50,THP-1,> 30 µM
same,MIC90,[5],29 µM
O=C(Nc1ccc([N+](=O)[O-])cc1)c1ccc2cccc(O)c2n1,log K,[1],1.0495
same,MIC90,[2],808 µM
same,MIC90,[3],404 µM
same,Activity,[4],17.3%
same,IC50,THP-1,> 30 µM
same,MIC90,[5],26 µM
COc1ccccc1NC(=O)c1ccc2cccc(O)c2n1,log K,[1],0.7935
same,MIC90,[2],51 µM
same,MIC90,[3],51 µM
same,IC50,THP-1,> 30 µM
same,MIC90,[5],27 µM
Cc1cccc(NC(=O)c2ccc3cccc(O)c3n2)c1,log K,[1],0.9686
same,MIC90,[2],29 µM
same,MIC90,[3],29 µM
same,Activity,[4],66.4%
same,IC50,THP-1,> 30 µM
same,MIC90,[5],29 µM
CO[C@H]1/C=C/O[C@@]2(C)Oc3c(C)c(O)c4c(O)c(c(/C=N/N5CCN(C)CC5)c(O)c4c3C2=O)NC(=O)/C(C)=C\C=C\[C@H](C)[C@H](O)[C@@H](C)[C@@H](O)[C@@H](C)[C@H](OC(C)=O)[C@@H]1C [RIFAMPIN],MIC90,[2],10 µM
same,MIC90,[3],109 µM
same,MIC90,[5],10 µM
O=C(Nc1cccc(Cl)c1)c1ccc2cccc(O)c2n1,log K,[1],1.1718
same,MIC90,[2],50 µM
same,MIC90,[3],50 µM
same,IC50,THP-1,> 30 µM
same,MIC90,[5],50 µM
O=C(Nc1ccccc1Br)c1ccc2cccc(O)c2n1,log K,[1],1.0536
same,MIC90,[2],729 µM
same,MIC90,[3],23 µM
same,Activity,[4],26.9%
same,IC50,THP-1,> 30 µM
same,MIC90,[5],23 µM
O=C(Nc1cccc(F)c1)c1ccc2cccc(O)c2n1,log K,[1],0.942
same,MIC90,[2],53 µM
same,MIC90,[3],53 µM
same,IC50,THP-1,> 30 µM
same,MIC90,[5],53 µM
O=C(Nc1ccccc1[N+](=O)[O-])c1ccc2cccc(O)c2n1,log K,[1],1.1277
same,MIC90,[2],808 µM
same,MIC90,[3],97 µM
same,IC50,THP-1,> 30 µM
same,MIC90,[5],97 µM
O=C(Nc1ccc(Cl)cc1)c1ccc2cccc(O)c2n1,log K,[1],1.1543
same,MIC90,[2],50 µM
same,MIC90,[3],837 µM
same,IC50,THP-1,> 30 µM
same,MIC90,[5],837 µM
COc1ccc(NC(=O)c2ccc3cccc(O)c3n2)cc1,log K,[1],0.7129
same,MIC90,[2],425 µM
same,MIC90,[3],849 µM
same,IC50,THP-1,> 30 µM
same,MIC90,[5],849 µM
O=C(Nc1ccccc1)c1ccc2cccc(O)c2n1,log K,[1],0.76
same,MIC90,[2],30 µM
same,MIC90,[3],30 µM
same,IC50,THP-1,> 30 µM
same,MIC90,[5],30 µM
O=C(Nc1ccc(F)cc1)c1ccc2cccc(O)c2n1,log K,[1],0.8598
same,MIC90,[2],53 µM
same,MIC90,[3],53 µM
same,IC50,THP-1,> 30 µM
same,MIC90,[5],53 µM
O=C(Nc1ccc(Br)cc1)c1ccc2cccc(O)c2n1,log K,[1],1.2347
same,MIC90,[2],44 µM
same,MIC90,[3],729 µM
same,IC50,THP-1,> 30 µM
same,MIC90,[5],729 µM
O=C(Nc1cccc(C(F)(F)F)c1)c1ccc2cccc(O)c2n1,log K,[1],1.3206
same,MIC90,[2],24 µM
same,MIC90,[3],24 µM
same,Activity,[4],18.8%
same,IC50,THP-1,> 30 µM
same,MIC90,[5],24 µM
O=C(Nc1ccccc1F)c1ccc2cccc(O)c2n1,log K,[1],0.6806
same,MIC90,[2],53 µM
same,MIC90,[3],28 µM
same,Activity,[4],26.9%
same,IC50,THP-1,> 30 µM
same,MIC90,[5],28 µM
Cc1ccc(NC(=O)c2ccc3cccc(O)c3n2)cc1,log K,[1],0.9521
same,MIC90,[2],54 µM
same,MIC90,[3],29 µM
same,IC50,THP-1,> 30 µM
same,MIC90,[5],29 µM
